The source of these data is ChEMBL document CHEMBL1121950, “Species- or isozyme-specific enzyme inhibitors. 9. Selective effects in inhibitions of rat pyruvate kinase isozymes by adenosine 5'-diphosphate derivatives” (J Med Chem, 1982).

Data set [1] deals with Pyruvate kinase PKLR (Rattus norvegicus) (UniProt P12928). The data set is described as follows: Relative inhibitory potency as ratio of kidney and liver pyruvate kinases.
The species entered for data set [2] is Rattus norvegicus. The data set is described as follows: Relative inhibitory potency as ratio of muscle and liver pyruvate kinases.
The target of data set [3] is Pyruvate kinase PKM (Rattus norvegicus) (UniProt P11980). The data set is described as follows: Ratio of Km(ADP)/Ki or Km for rat muscle pyruvate kinase.
Sequence of Pyruvate kinase PKM (Rattus norvegicus) (P11980 whole entry): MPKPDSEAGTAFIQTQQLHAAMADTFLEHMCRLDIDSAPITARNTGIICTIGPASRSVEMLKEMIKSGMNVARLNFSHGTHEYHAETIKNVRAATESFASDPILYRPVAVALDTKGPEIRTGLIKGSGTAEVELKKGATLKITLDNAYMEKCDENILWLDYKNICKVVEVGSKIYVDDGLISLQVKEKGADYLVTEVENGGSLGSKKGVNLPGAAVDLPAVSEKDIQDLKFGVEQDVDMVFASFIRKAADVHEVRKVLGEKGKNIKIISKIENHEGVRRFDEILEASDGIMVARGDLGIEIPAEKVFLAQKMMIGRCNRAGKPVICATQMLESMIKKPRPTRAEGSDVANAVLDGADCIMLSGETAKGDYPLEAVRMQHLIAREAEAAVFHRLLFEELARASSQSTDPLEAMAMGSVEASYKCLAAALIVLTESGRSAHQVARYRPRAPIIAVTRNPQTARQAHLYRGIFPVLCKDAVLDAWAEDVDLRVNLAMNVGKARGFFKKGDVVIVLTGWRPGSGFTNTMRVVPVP
Data set [4] deals with Pyruvate kinase PKLR (Rattus norvegicus) (UniProt P12928). The data set is described as follows: Ratio of Km(ADP)/Ki or Km for rat liver pyruvate kinase.
The species entered for data set [5] is Rattus norvegicus. The data set is described as follows: Relative half maximal velocity of Pyruvate kinase to Phosphoenolpyruvate was determined.
Data set [6] deals with Pyruvate kinase PKM (Rattus norvegicus) (UniProt P11980). The data set is described as follows: (§1) Relative half maximal velocity of Pyruvate kinase and Phosphoenolpyruvate.
Data set [7] deals with Pyruvate kinase PKLR (Rattus norvegicus) (UniProt P12928). The data set is described as §1.
Data set [8] has as its system CNc1nc2c(N)ncnc2n1C1O[C@H](COP(=O)(O)OP(=O)(O)O)[C@@H](O)[C@H]1O. The data set is described as follows: (§2) Michaelis-Menten constant for inhibition of pyruvate kinase obtained from rat muscle (PK-M) was determined using ADP as competitive inhibitor.
The subject of data set [9] is CSc1nc(N)c2ncn([C@@H]3O[C@H](COP(=O)(O)OP(=O)(O)O)[C@@H](O)[C@H]3O)c2n1. The data set is described as §2.
Data set [10] has as its system Nc1nc(N)c2ncn(C3O[C@H](COP(=O)(O)OP(=O)(O)O)[C@@H](O)[C@H]3O)c2n1. The description is as §2.
The test system of data set [11] is CC(=O)N(C)CCCCN(C)c1ncnc2c1ncn2[C@@H]1O[C@H](COP(=O)(O)OP(=O)(O)O)[C@@H](O)[C@H]1O. Described as §2.
Data set [12] relates to C[C@H](OP(=O)(O)OP(=O)(O)O)[C@H]1OC(n2cnc3c(N)ncnc32)[C@H](O)[C@@H]1O. The description is as §2.
The subject of data set [13] is CO[C@@H]1[C@H](O)[C@@H](COP(=O)(O)OP(=O)(O)O)O[C@H]1n1cnc2c(N)ncnc21. Described as §2.
For data set [14], the system named is C=CC[C@]1(COP(=O)(O)OP(=O)(O)O)OC(n2cnc3c(N)ncnc32)[C@H](O)[C@@H]1O. Described as §2.
In data set [15] the test system is Nc1ncnc2c1ncn2[C@@H]1O[C@H](COP(=O)(O)OP(=O)(O)O)[C@@H](O)[C@H]1O. The data set is described as §2.
Data set [16] has as its system CNc1nc(N)c2ncn(C3O[C@H](COP(=O)(O)OP(=O)(O)O)[C@@H](O)[C@H]3O)c2n1. The description is as §2.
Data set [17] deals with Nc1ncnc2c1nc(Br)n2[C@@H]1O[C@H](COP(=O)(O)OP(=O)(O)O)[C@@H](O)[C@H]1O. Described as §2.
Data set [18] concerns CNc1nc2c(N)ncnc2n1C1O[C@H](COP(=O)(O)OP(=O)(O)O)[C@@H](O)[C@H]1O. The data set is described as follows: (§3) Michaelis-Menten constant for inhibition of pyruvate kinase obtained from rat liver (PK-L) was determined using ADP as competitive inhibitor.
Data set [19] deals with CSc1nc(N)c2ncn([C@@H]3O[C@H](COP(=O)(O)OP(=O)(O)O)[C@@H](O)[C@H]3O)c2n1. Described as §3.
The test system of data set [20] is Nc1nc(N)c2ncn(C3O[C@H](COP(=O)(O)OP(=O)(O)O)[C@@H](O)[C@H]3O)c2n1. Described as §3.
For data set [21], the system named is CC(=O)N(C)CCCCN(C)c1ncnc2c1ncn2[C@@H]1O[C@H](COP(=O)(O)OP(=O)(O)O)[C@@H](O)[C@H]1O. The description is as §3.
For data set [22], the system named is C[C@H](OP(=O)(O)OP(=O)(O)O)[C@H]1OC(n2cnc3c(N)ncnc32)[C@H](O)[C@@H]1O. The description is as §3.
In data set [23] the test system is CO[C@@H]1[C@H](O)[C@@H](COP(=O)(O)OP(=O)(O)O)O[C@H]1n1cnc2c(N)ncnc21. The data set is described as §3.
The test system of data set [24] is C=CC[C@]1(COP(=O)(O)OP(=O)(O)O)OC(n2cnc3c(N)ncnc32)[C@H](O)[C@@H]1O. The description is as §3.
The test system of data set [25] is Nc1ncnc2c1ncn2[C@@H]1O[C@H](COP(=O)(O)OP(=O)(O)O)[C@@H](O)[C@H]1O. Described as §3.
The subject of data set [26] is CNc1nc(N)c2ncn(C3O[C@H](COP(=O)(O)OP(=O)(O)O)[C@@H](O)[C@H]3O)c2n1. Described as §3.
The test system of data set [27] is Nc1ncnc2c1nc(Br)n2[C@@H]1O[C@H](COP(=O)(O)OP(=O)(O)O)[C@@H](O)[C@H]1O. The description is as §3.
The target in data set [28] is Pyruvate kinase PKM (Rattus norvegicus) (UniProt P11980). The description is as §1. This is another data set of the same source.
The target is the same in data set [29]. The data set is described as follows: Ratio of Km(ADP)/Ki or Km for rat muscle pyruvatre kinase; (inhibitory potency at 2.35 mM).

Sequence of Pyruvate kinase PKLR (Rattus norvegicus) (P12928 whole entry): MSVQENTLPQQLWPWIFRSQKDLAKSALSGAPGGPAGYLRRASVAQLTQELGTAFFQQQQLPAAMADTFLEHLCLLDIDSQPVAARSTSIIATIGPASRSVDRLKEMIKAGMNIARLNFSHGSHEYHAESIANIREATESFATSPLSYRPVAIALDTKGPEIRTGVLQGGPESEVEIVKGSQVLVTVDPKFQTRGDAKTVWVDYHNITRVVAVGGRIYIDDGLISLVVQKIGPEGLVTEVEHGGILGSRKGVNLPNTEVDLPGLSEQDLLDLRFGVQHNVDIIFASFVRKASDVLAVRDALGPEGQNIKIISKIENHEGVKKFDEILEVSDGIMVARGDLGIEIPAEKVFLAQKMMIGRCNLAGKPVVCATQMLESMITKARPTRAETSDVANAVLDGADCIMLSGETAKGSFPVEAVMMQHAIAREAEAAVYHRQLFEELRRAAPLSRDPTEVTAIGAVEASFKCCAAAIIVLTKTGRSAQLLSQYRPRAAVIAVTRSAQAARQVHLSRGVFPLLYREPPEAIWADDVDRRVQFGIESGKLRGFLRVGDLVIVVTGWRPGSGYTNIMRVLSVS
Sequence of Pyruvate kinase PKLR (Rattus norvegicus), P12928 (P12928 whole entry): as above
Sequence of Pyruvate kinase PKM (Rattus norvegicus), P11980 (P11980 whole entry): as the sequence (P11980 whole entry) above

Consider `CC(=O)N(C)CCCCN(C)c1ncnc2c1ncn2[C@@H]1O[C@H](COP(=O)(O)OP(=O)(O)O)[C@@H](O)[C@H]1O`, for which the Relative inhibitory potency in data set [1] amounted to 0.67; in the data set filed under Rattus norvegicus [2], 0.33. The Inhibitory potency in data set [3] is 0.14; in data set [4] it was 0.43.

`CSc1nc(N)c2ncn([C@@H]3O[C@H](COP(=O)(O)OP(=O)(O)O)[C@@H](O)[C@H]3O)c2n1`: the Relative inhibitory potency was found to be 1.12 in data set [1] and 0.94 in the data set filed under Rattus norvegicus [2]. Further, the Relative Vmax in the data set filed under Rattus norvegicus [5] came to 67; in data set [6] it was 77; in data set [7], 72. In addition, the Inhibitory potency in data set [3] stood at 4.7; in data set [4], 5.

In the case of “Pyruvate kinase PKM (Rattus norvegicus), P11980”, the Km in [8] was found to be 560 µM; in data set [9], 110 µM; in data set [10], 260 µM; in data set [11] it was 3600 µM; in data set [12], 2700 µM; in [13], 700 µM. Also, the Km in data set [14] worked out at 1300 µM; in data set [15] it was 520 µM; in data set [16], 190 µM; in data set [17], 2900 µM.

On to `CCNc1nc2c(N)ncnc2n1C1O[C@H](COP(=O)(O)OP(=O)(O)O)[C@@H](O)[C@H]1O` (some centres undefined), for which the Relative inhibitory potency in [1] was 1.2; in the data set listed under Rattus norvegicus [2] it was 7.1. For the same compound, the figures for the Relative Vmax (in the data set listed under Rattus norvegicus [5]; in [6]; in data set [7]) were 0.7, less than 1 and less than 1, respectively. Besides, the Inhibitory potency was 1 in data set [3] and 0.14 in data set [4].

For “Pyruvate kinase PKLR (Rattus norvegicus), P12928”, the Km in data set [18] worked out at 160 µM; in [19] it was 61 µM; in data set [20], 90 µM; in [21], 700 µM; in data set [22], 1300 µM; in data set [23] it was 350 µM. Also, the Km in data set [24] was determined as 530 µM; in data set [25] it was 300 µM; in data set [26], 120 µM; in data set [27], 2300 µM.

For `CCSc1nc2c(N)ncnc2n1C1O[C@H](COP(=O)(O)OP(=O)(O)O)[C@@H](O)[C@H]1O` (some centres undefined), the Relative inhibitory potency in data set [1] amounted to 3.6; in the data set filed under Rattus norvegicus [2], 3.9. In addition, the Relative Vmax (in the data set filed under Rattus norvegicus [5]; in [6]; in data set [7]) was 0 throughout. Further, the Inhibitory potency worked out at 0.14 in [3] and 0.036 in data set [4].

Regarding `CO[C@H]1[C@@H](O)[C@H](n2cnc3c(N)ncnc32)O[C@@H]1COP(=O)(O)OP(=O)(O)O`, the figures for the Relative inhibitory potency (in data set [1]; in the data set listed under Rattus norvegicus [2]) were 7.6 and 6, respectively. The Relative Vmax (in the data set filed under Rattus norvegicus [5]; in data set [6]; in data set [7]) was more than 0 each time. Further, the Inhibitory potency worked out at 0.056 in data set [3] and 0.0094 in [4].

For the compound `C=CC[C@]1(COP(=O)(O)OP(=O)(O)O)OC(n2cnc3c(N)ncnc32)[C@H](O)[C@@H]1O` (some centres undefined), the Relative Vmax in the data set listed under Rattus norvegicus [5] amounted to 11; in data set [6] it was 7; in [7] it was 52.

`CC1O[C@@H]2[C@H](O1)[C@@H](COP(=O)(O)OP(=O)(O)O)O[C@H]2n1cnc2c(N)ncnc21` (some centres undefined): the Relative inhibitory potency in the data set filed under Rattus norvegicus [2] was determined as 2.3. For the same compound, the Relative Vmax in data set [28] and in [6] was 0 each time. The results for the Inhibitory potency in data set [3] and in data set [4] were 0.325 and 0.14, respectively.

Take `Nc1ncnc2c1ncn2[C@@H]1O[C@H](COP(=O)(O)OP(=O)(O)O)[C@@H](O)[C@H]1O`: the Relative Vmax (in the data set listed under Rattus norvegicus [5]; in data set [6]; in data set [7]) was 100 in each case.

In the case of `CNc1nc2c(N)ncnc2n1C1O[C@H](COP(=O)(O)OP(=O)(O)O)[C@@H](O)[C@H]1O` (some centres undefined), the Relative inhibitory potency was determined as 0.45 in data set [1] and 0.49 in the data set filed under Rattus norvegicus [2]. The Relative Vmax in the data set filed under Rattus norvegicus [5] was 49; in [6], 55; in data set [7], 40. The Inhibitory potency in data set [3] is 0.93; in data set [4] it was 1.9.

Consider `CSc1nc2c(N)ncnc2n1C1O[C@H](COP(=O)(O)OP(=O)(O)O)[C@@H](O)[C@H]1O` (some centres undefined), for which the Relative inhibitory potency in data set [1] came to 2.5; in the data set listed under Rattus norvegicus [2] it was 3. The Relative Vmax (in the data set filed under Rattus norvegicus [5]; in data set [6]; in [7]) was 0 each time. Further, the Inhibitory potency in [3] is 0.12; in data set [4], 0.04.

For `CNc1nc(N)c2ncn(C3O[C@H](COP(=O)(O)OP(=O)(O)O)[C@@H](O)[C@H]3O)c2n1` (some centres undefined), the Relative inhibitory potency in data set [1] came out at 1.4; in the data set filed under Rattus norvegicus [2], 1.1. Besides, the Relative Vmax in the data set filed under Rattus norvegicus [5] turned out to be 85; in data set [6], 77; in [7], 86. The Inhibitory potency in [3] amounted to 2.7; in data set [4], 2.5.

In the case of `C[C@H](OP(=O)(O)OP(=O)(O)O)[C@H]1OC(n2cnc3c(N)ncnc32)[C@H](O)[C@@H]1O` (some centres undefined), the Relative inhibitory potency in data set [1] came to 0.74; in the data set listed under Rattus norvegicus [2], 0.83. Besides, the Relative Vmax in the data set filed under Rattus norvegicus [5] turned out to be 15; in data set [6] it was 15; in data set [7] it was 26. Also, the figures for the Inhibitory potency in data set [3] and in data set [4] were 0.19 and 0.23, respectively.

As for `C[C@@H](OP(=O)(O)OP(=O)(O)O)[C@H]1OC(n2cnc3c(N)ncnc32)[C@H](O)[C@@H]1O` (some centres undefined), the results for the Relative inhibitory potency (in data set [1]; in the data set listed under Rattus norvegicus [2]) were 1.1 and 2.1, respectively. Moreover, the Relative Vmax (in the data set filed under Rattus norvegicus [5]; in [6]; in [7]) was more than 0 in each case. Further, the Inhibitory potency in data set [3] was found to be 0.12; in data set [4], 0.056.

On to `CCCNc1nc2c(N)ncnc2n1C1O[C@H](COP(=O)(O)OP(=O)(O)O)[C@@H](O)[C@H]1O` (some centres undefined), for which the Relative Vmax (in the data set filed under Rattus norvegicus [5]; in data set [6]) was 0 in each case. Besides, in the data set filed under Rattus norvegicus [2], the Relative inhibitory potency amounted to 3.1. Also, the Inhibitory potency in [4] is 0.19; in [29] it was 0.58.

As for `Nc1ncnc2c1nc(Br)n2[C@@H]1O[C@H](COP(=O)(O)OP(=O)(O)O)[C@@H](O)[C@H]1O`, the values for the Relative inhibitory potency (in [1]; in the data set filed under Rattus norvegicus [2]) were 1.3 and 1.4, respectively. The Relative Vmax was 6 in data set [28], 6 in data set [6] and 14 in data set [7]. For the same compound, the values for the Inhibitory potency in data set [3] and in data set [4] were 0.18 and 0.13, respectively.

As to `CO[C@@H]1[C@H](O)[C@@H](COP(=O)(O)OP(=O)(O)O)O[C@H]1n1cnc2c(N)ncnc21`, the Relative inhibitory potency was determined as 1.04 in data set [1] and 0.86 in the data set listed under Rattus norvegicus [2]. Moreover, the Relative Vmax in the data set listed under Rattus norvegicus [5] was determined as 94; in data set [6] it was 90; in [7] it was 100. For the same compound, the Inhibitory potency in data set [3] worked out at 0.74; in data set [4], 0.86.

As for `Nc1nc(N)c2ncn(C3O[C@H](COP(=O)(O)OP(=O)(O)O)[C@@H](O)[C@H]3O)c2n1` (some centres undefined), the Relative inhibitory potency (in data set [1]; in the data set listed under Rattus norvegicus [2]) was 0.61 throughout. In addition, the figures for the Relative Vmax (in the data set filed under Rattus norvegicus [5]; in data set [6]; in data set [7]) were 90, 77 and 95, respectively. Further, the Inhibitory potency came out at 2 in data set [3] and 3.3 in [4].

One may read the Km as the substrate concentration at which the rate is half of its maximum.
